Here are results for 27 compounds from patent publication US8101768B2, “Cyclic amine compound and pest control agent” (Nippon Soda Co., Ltd., priority 2004, dated 2012).

Holding throughout (type): in vivo
For assay [1], the system named is organophosphorous agent resistant two-spotted spider mites. Nature of the assay: Effect on Two-spotted Spider Mite (spray on kidney bean leaves). To be noted: 125 ppm, water dispersible powder of Formulation Example 1 sprayed, 17 female adults, 25° C., 65% humidity, 3 days. In short, it runs like this:
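Mortality of adult females counted after 3 days at 25 °C and 65% humidity, following a 125 ppm spray of wettable-powder dilution onto infested 7–10-day-old bean seedlings (17 mites per leaf). Two replicates.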

Assay [2] has as its system acaricide resistant citrus red mites. Kind of assay: Effect on Citrus Red Mite (spray on mandarin orange leaves). To be noted: 31 ppm, emulsifiable concentrate of Formulation Example 2 sprayed, 10 female adults, 25° C., 65% humidity. The procedure, abridged:
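Acaricide-resistant female adult citrus red mites (10 per leaf) on mandarin orange leaves were sprayed with emulsifiable concentrate diluted to 31 ppm compound. Leaves were held 3 days at 25° C, 65% humidity, then adults were removed. Eggs laid during those 3 days were checked on day 11 for development to adults.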

The next assay has as its system army worms. Nature of the assay: Effect on Army Worm (artificial feed test). To be noted: 10 μg of compound on 0.2 ml artificial feed, second instar, 25° C., 5 days. On the procedure:
Test feeds were prepared by filling plastic test tubes (capacity of 1.4 ml) with 0.2 ml of a commercial artificial feed (Insecta LFS, manufactured by Nosan Corporation). Each of 1% chemical compound solutions was prepared by using DMSO (containing 0.5% tween 20), which was then dropped into the surface of the feed in amount of 10 μg of the respective chemical compounds. 2 army worms, each of which was in the second instar, were inoculated into each of the test tubes, which were then sealed by their plastic caps. After they were left at 25° C. for 5 days, the rate of killed army worms and their feed consumptions were investigated. The test was repeated twice. […] 1-8, 1-9, 1-13, 1-15, 1-17, 1-22, 1-23, 1-27, 1-39, 1-45, 1-46, 1-59, 1-69, 1-72, 1-74, 1-75, 1-79, 1-80, 1-83, 1-95, 1-97, 1-981-100, 1-105, 1-108, 1-114, 1-133, 1-140, 1-147, 1-153, 1-165, 1-166, 1-181, 1-182, 1-183, 1-184, 1-187, 1-189, 1-190,

As for `FC(F)(F)c1ccc(N2CCC(Oc3ccc(C(F)(F)F)cc3Br)CC2)nc1` [1-22], in assay [1], the “rate of killed adults” value is 100%. Further, the “killed ... of the adults (eggs laid for 3 days investigated whether they could grow to adults on the eleventh day)” value (“killed ... of the adults” below) in assay [2] was 100%. Further, the “killed 100% of the army worms, or inhibited their feed consumptions, in comparison with a solvent control area, to 10% or less (effective)” value in the assay on army worms is recorded as “effective”.
As for `CCCOc1cc(C(F)(F)F)ccc1O[C@H]1CCN(c2ccc(C(F)(F)F)cn2)C[C@H]1C` (relative stereo) [1-97, cis-3-methyl-4-[2-propoxy-4-(triphloromethyl)phenoxy]-1-[5-(trifluoromethyl)-2-pyridyl]piperidine], the “rate of killed adults” value in assay [1] turned out to be 100%. Moreover, the “killed ... of the adults” value in assay [2] amounted to 100%. Also, the “killed 100% of the army worms, or inhibited their feed consumptions, in comparison with a solvent control area, to 10% or less (effective)” value with army worms was “effective”.
With `Cc1cc(C(F)(F)F)ccc1OC1CCN(c2ccc(C(F)(F)F)cn2)CC1` [1-45], the “rate of killed adults” value in assay [1] was 100%. For the same compound, in assay [2], the “killed ... of the adults” value stood at 100%. For the same compound, in the assay with army worms, the “killed 100% of the army worms, or inhibited their feed consumptions, in comparison with a solvent control area, to 10% or less (effective)” value is listed as “effective”.
With `FC(F)(F)c1ccc(N2CCC(Oc3ccc(C(F)(F)F)cc3I)CC2)nc1` [1-27], the “rate of killed adults” value in assay [1] came to 100%. Besides, the “killed ... of the adults” value in assay [2] is 100%. Further, the “killed 100% of the army worms, or inhibited their feed consumptions, in comparison with a solvent control area, to 10% or less (effective)” value with army worms is given as “effective”.
With `FC(F)(F)c1ccc(N2CCC(Oc3ccc(C(F)(F)F)cc3Cl)CC2)nc1` [1-13], the “rate of killed adults” value in assay [1] is reported as 100%. Moreover, the “killed ... of the adults” value in assay [2] was determined as 100%. In addition, the “killed 100% of the army worms, or inhibited their feed consumptions, in comparison with a solvent control area, to 10% or less (effective)” value in the assay with army worms is recorded as “effective”.
For the compound `FC(F)(F)c1ccc(OC2CCN(c3ccc(C(F)(F)F)cn3)CC2)cc1` [1-75], in assay [1], the “rate of killed adults” value was 100%. The “killed ... of the adults” value in assay [2] came out at 100%. In addition, in the assay with army worms, the “killed 100% of the army worms, or inhibited their feed consumptions, in comparison with a solvent control area, to 10% or less (effective)” value was “effective”.
`Cc1noc(-c2cc(C(F)(F)F)ccc2OC2CCN(c3ccc(C(F)(F)F)cn3)CC2)n1` [1-190]: the “rate of killed adults” value in assay [1] was determined as 100%. In addition, the “killed ... of the adults” value in assay [2] was 100%. Besides, the “killed 100% of the army worms, or inhibited their feed consumptions, in comparison with a solvent control area, to 10% or less (effective)” value in the assay with army worms is “effective”.
On to `COC(C)OCc1cc(C(F)(F)F)ccc1OC1CCN(c2ccc(C(F)(F)F)cn2)CC1` (centres unmarked) [1-72], for which the “rate of killed adults” value in assay [1] is 100%. Further, the “killed ... of the adults” value in assay [2] stood at 100%. Besides, in the assay on army worms, the “killed 100% of the army worms, or inhibited their feed consumptions, in comparison with a solvent control area, to 10% or less (effective)” value is “effective”.
For the compound `FC(F)(F)c1ccc(N2CCC(Oc3ccc(C(F)(F)F)cc3C3OCCO3)CC2)nc1` [1-181], the “rate of killed adults” value in assay [1] is listed as 100%. The “killed ... of the adults” value in assay [2] worked out at 100%. The “killed 100% of the army worms, or inhibited their feed consumptions, in comparison with a solvent control area, to 10% or less (effective)” value in the assay on army worms was “effective”.
On to `COCOCc1cc(C(F)(F)F)ccc1OC1CCN(c2ccc(C(F)(F)F)cn2)CC1C` (mixture of isomers) [1-183], for which, in assay [1], the “rate of killed adults” value is given as 100%. Also, the “killed ... of the adults” value in assay [2] was found to be 100%. The “killed 100% of the army worms, or inhibited their feed consumptions, in comparison with a solvent control area, to 10% or less (effective)” value with army worms is recorded as “effective”.
For `C=CCc1cc(C(F)(F)F)ccc1OC1CCN(c2ccc(C(F)(F)F)cn2)CC1` [1-74], the “rate of killed adults” value in assay [1] is 100%. Further, in the assay with army worms, the “killed 100% of the army worms, or inhibited their feed consumptions, in comparison with a solvent control area, to 10% or less (effective)” value is recorded as “effective”.
For `COCOCc1cc(C(F)(F)F)ccc1OC1CCN(c2ccc(C(F)(F)F)cn2)CC1` [1-69], in assay [1], the “rate of killed adults” value is reported as 100%. The “killed ... of the adults” value in assay [2] is 100%. Also, the “killed 100% of the army worms, or inhibited their feed consumptions, in comparison with a solvent control area, to 10% or less (effective)” value with army worms was “effective”.
On to `COCOc1cc(C(F)(F)F)ccc1OC1CCN(c2ccc(C(F)(F)F)cn2)CC1` [1-105, 4-[2-methoxymethoxy-4-(trifluoromethyl)-phenoxy]-1-[5-(trifluoromethyl)-2-pyridyl]piperidine], for which the “rate of killed adults” value in assay [1] is 100%. The “killed ... of the adults” value in assay [2] was 100%. Further, the “killed 100% of the army worms, or inhibited their feed consumptions, in comparison with a solvent control area, to 10% or less (effective)” value in the assay on army worms is reported as “effective”.
As to `CCCc1cc(C(F)(F)F)ccc1OC1CCN(c2ccc(C(F)(F)F)cn2)CC1` [1-59], the “rate of killed adults” value in assay [1] is 100%. Moreover, the “killed ... of the adults” value in assay [2] is 100%. Besides, the “killed 100% of the army worms, or inhibited their feed consumptions, in comparison with a solvent control area, to 10% or less (effective)” value in the assay on army worms was “effective”.
On to `O=S(=O)(Oc1ccc(OC2CCN(c3ccc(C(F)(F)F)cn3)CC2)cc1)C(F)(F)F` [1-153], for which the “rate of killed adults” value in assay [1] is 100%. The “killed ... of the adults” value in assay [2] is reported as 100%. In the assay with army worms, the “killed 100% of the army worms, or inhibited their feed consumptions, in comparison with a solvent control area, to 10% or less (effective)” value is “effective”.
For `Fc1cc(C(F)(F)F)ccc1OC1CCN(c2ccc(C(F)(F)F)cn2)CC1` [1-8], the “rate of killed adults” value in assay [1] was found to be 100%. For the same compound, the “killed 100% of the army worms, or inhibited their feed consumptions, in comparison with a solvent control area, to 10% or less (effective)” value in the assay on army worms is listed as “effective”.
The matching figures for `FC(F)(F)Sc1ccc(OC2CCN(c3ccc(C(F)(F)F)cn3)CC2)cc1` [1-147]: 100% and “effective”.
As for `CCCOc1cc(C(F)(F)F)ccc1OC1CCN(c2ccc(C(F)(F)F)cn2)CC1CC` (centres unmarked) [1-187], the “rate of killed adults” value in assay [1] came to 100%. The “killed ... of the adults” value in assay [2] was 100%. The “killed 100% of the army worms, or inhibited their feed consumptions, in comparison with a solvent control area, to 10% or less (effective)” value in the assay with army worms was “effective”.
On to `FC(F)(F)c1ccc(N2CCC(Oc3ccc(Br)c(C(F)(F)F)c3)CC2)nc1` [1-23, 4-[4-bromo-3-(trifluoromethyl)phenoxy]-1-[5-(trifluoromethyl)-2-pyridyl]-piperidine], for which the “rate of killed adults” value in assay [1] is given as 100%. The “killed 100% of the army worms, or inhibited their feed consumptions, in comparison with a solvent control area, to 10% or less (effective)” value with army worms is given as “effective”.
As to `FC(F)(F)c1ccc(N2CCC(Oc3ccc(Cl)c(C(F)(F)F)c3)CC2)nc1` [1-15, 4-[4-chloro-3-(trifluoromethyl)phenoxy]-1-[5-(trifluoromethyl)-2-pyridyl]-piperidine], in assay [1], the “rate of killed adults” value came out at 100%. Besides, in assay [2], the “killed ... of the adults” value worked out at 100%. In the assay with army worms, the “killed 100% of the army worms, or inhibited their feed consumptions, in comparison with a solvent control area, to 10% or less (effective)” value is “effective”.
Regarding `Fc1ccc(OC2CCN(c3ccc(C(F)(F)F)cn3)CC2)cc1C(F)(F)F` [1-9], the “rate of killed adults” value in assay [1] was 100%. Also, in the assay with army worms, the “killed 100% of the army worms, or inhibited their feed consumptions, in comparison with a solvent control area, to 10% or less (effective)” value is listed as “effective”.
In the case of `FC(F)(F)Oc1ccc(OC2CCN(c3ccc(C(F)(F)F)cn3)CC2)cc1` [1-133], the “rate of killed adults” value in assay [1] is 100%. For the same compound, the “killed ... of the adults” value in assay [2] amounted to 100%. Also, the “killed 100% of the army worms, or inhibited their feed consumptions, in comparison with a solvent control area, to 10% or less (effective)” value in the assay on army worms is given as “effective”.
For `FC(F)(F)c1ccc(N2CCC(Oc3c(Cl)cc(C(F)(F)F)cc3Br)CC2)nc1` [1-17], in assay [1], the “rate of killed adults” value is reported as 100%. For the same compound, the “killed 100% of the army worms, or inhibited their feed consumptions, in comparison with a solvent control area, to 10% or less (effective)” value in the assay with army worms is “effective”.
On to `FC(F)(F)c1ccc(N2CCC(Oc3ccc(C(F)(F)F)cc3OCC3CC3)CC2)nc1` [1-108], for which, in assay [1], the “rate of killed adults” value stood at 100%. Further, in assay [2], the “killed ... of the adults” value was determined as 100%. Moreover, the “killed 100% of the army worms, or inhibited their feed consumptions, in comparison with a solvent control area, to 10% or less (effective)” value in the assay with army worms is given as “effective”.
In the case of `FC(F)(F)c1ccc(N2CCC(Oc3ccc(C(F)(F)F)cc3C(F)(F)F)CC2)nc1` [1-80], the “rate of killed adults” value in assay [1] was found to be 100%. In assay [2], the “killed ... of the adults” value came out at 100%. Moreover, the “killed 100% of the army worms, or inhibited their feed consumptions, in comparison with a solvent control area, to 10% or less (effective)” value with army worms is on record as “effective”.
As for `COC(C)OCc1cc(C(F)(F)F)ccc1OC1CCN(c2ccc(C(F)(F)F)cn2)CC1C` (centres unmarked) [1-189], the “rate of killed adults” value in assay [1] is 100%. Moreover, the “killed ... of the adults” value in assay [2] is on record as 100%. For the same compound, the “killed 100% of the army worms, or inhibited their feed consumptions, in comparison with a solvent control area, to 10% or less (effective)” value in the assay with army worms is recorded as “effective”.
Take `CCCOCc1cc(C(F)(F)F)ccc1OC1CCN(c2ccc(C(F)(F)F)cn2)CC1` [1-182]: in assay [1], the “rate of killed adults” value worked out at 100%. Further, the “killed 100% of the army worms, or inhibited their feed consumptions, in comparison with a solvent control area, to 10% or less (effective)” value in the assay on army worms is “effective”.
